Experiments:
bulrush [1] = test: Test Example 1: herbicidal efficacy on rice paddy weeds pre-emergence; format: in vivo, Scirpus juncoides; conditions: dosage 1000 g/ha, 21 days
barnyard glass = test: Test Example 2: herbicidal efficacy on rice paddy weeds post-emergence; format: in vivo, Echinochloa crus-galli; conditions: dosage 1000 g/ha; post-emergence, one leaf stage; 21 days after treatment
How it was run: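 Efficacy on paddy weeds was scored on a 0 to 4 growth-inhibition scale: 4 for 90%-100%, 3 for 70%-89%, 2 for 40%-69%, 1 for 1%-39% and 0 for 0%. Barnyard glass was grown in clay loam in 75 cm^2 pots under 5 cm of water in a hot house. It was compared with untreated pots 21 days after treatment.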

[2] = system: transplanted paddy rice plant and Bulrush; test: Test Example 5: selectivity between transplanted paddy rice plant and weeds; format: in vivo; conditions: (highest dosage with no phytotoxicity to paddy rice)/(lowest dosage with effective level 4 on Bulrush); rice 3000-100 g/ha, Bulrush 300-10 g/ha; 21 days
How it was run: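 Scoring ran 21 days after treatment in a hothouse on a 0–4 scale (4 = 90–100%, 3 = 70–89%, 2 = 40–69%, 1 = 1–39%, 0 = none) relative to untreated plants. Post-emergence bulrush received 10, 30, 100 and 300 g/ha active ingredient. Transplanted rice received 100, 300, 1000 and 3000 g/ha to assess crop injury.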

bulrush [3] = test: Test Example 2: herbicidal efficacy on rice paddy weeds post-emergence; format: in vivo, Scirpus juncoides; conditions: dosage 1000 g/ha; post-emergence, one leaf stage; 21 days after treatment
false pimpernel [4] = test: as above; format: in vivo, Lindernia pyxidaria; conditions: dosage 1000 g/ha; post-emergence, one leaf stage; 21 days after treatment
[5] = system: paddy rice plant (cultivar: Nihonbare); test: Test Example 3: phytotoxicity test for transplanted paddy rice plant; format: in vivo; conditions: dosage 1000 g/ha; transplanted rice, treated 5 days after transplantation; 21 days after treatment
How it was run: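 Clay loam soil was placed in a 75 cm^2 plastic pot and flooded to a water depth of 5 cm. Two Nihonbare paddy rice plants at the two-leaf stage were transplanted 1 cm deep and grown in a hot house. After treatment, pots stayed in the hot house for 21 days, and phytotoxicity was then graded against an untreated control.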

bulrush [6] = test: Test Example 4: low dosage test for rice paddy weeds; format: in vivo, Scirpus juncoides; conditions: 300 g/ha as an active ingredient; plants treated at the one leaf stage; 21 days after treatment; vs untreated control
How it was run: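 Compound applied as a formulation at 300 g/ha to one-leaf bulrush grown in flooded clay loam (5 cm water) in a hot house. After 21 days, growth inhibition versus untreated plants rated on a 0–4 scale, with 4 meaning 90–100%.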

false pimpernel [7] = test: Test Example 1: herbicidal efficacy on rice paddy weeds pre-emergence; format: in vivo, Lindernia pyxidaria; conditions: dosage 1000 g/ha, 21 days

Structure (SMILES)	Bulrush pre (herbicidal efficacy grade) (bulrush [1])	Burnyard grass post (herbicidal efficacy grade) (barnyard glass)	Selective Index [2]	Bulrush post (herbicidal efficacy grade) (bulrush [3])	False pimpernel post (herbicidal efficacy grade) (false pimpernel [4])	Phytotoxicity to paddy rice [5]	Herbicide effect to Bulrush (bulrush [6])	False pimpernel pre (herbicidal efficacy grade) (false pimpernel [7])
CC(C)OCCOC(=O)N(c1ccccc1CN1CC(C)(C)OC1=O)S(=O)(=O)C(F)(F)F [1-78]	4 (90%-100% of herbicidal efficacy or phytotoxicity)	4 (90%-100% of herbicidal efficacy or phytotoxicity)	10	4 (90%-100% of herbicidal efficacy or phytotoxicity)	4 (90%-100% of herbicidal efficacy or phytotoxicity)	1 (1%-39% of herbicidal efficacy or phytotoxicity)	4 (90%-100% of herbicidal efficacy or phytotoxicity)	4 (90%-100% of herbicidal efficacy or phytotoxicity)
C#CCOC(=O)N(c1ccccc1CN1CC(C)(C)OC1=O)S(=O)(=O)C(F)(F)F [1-79]	4 (90%-100% of herbicidal efficacy or phytotoxicity)	4 (90%-100% of herbicidal efficacy or phytotoxicity)	10	4 (90%-100% of herbicidal efficacy or phytotoxicity)	4 (90%-100% of herbicidal efficacy or phytotoxicity)	2 (40%-69% of herbicidal efficacy or phytotoxicity)	4 (90%-100% of herbicidal efficacy or phytotoxicity)	4 (90%-100% of herbicidal efficacy or phytotoxicity)
CCOC(=O)N(c1ccccc1CN1CC(C)(C)OC1=O)S(=O)(=O)C(F)(F)F [1-80]	4 (90%-100% of herbicidal efficacy or phytotoxicity)	4 (90%-100% of herbicidal efficacy or phytotoxicity)	30	4 (90%-100% of herbicidal efficacy or phytotoxicity)	4 (90%-100% of herbicidal efficacy or phytotoxicity)	2 (40%-69% of herbicidal efficacy or phytotoxicity)	4 (90%-100% of herbicidal efficacy or phytotoxicity)	4 (90%-100% of herbicidal efficacy or phytotoxicity)
COCCOC(=O)N(c1ccccc1CN1CC(C)(C)OC1=O)S(=O)(=O)C(F)(F)F [1-81]	4 (90%-100% of herbicidal efficacy or phytotoxicity)	4 (90%-100% of herbicidal efficacy or phytotoxicity)	30	4 (90%-100% of herbicidal efficacy or phytotoxicity)	4 (90%-100% of herbicidal efficacy or phytotoxicity)	2 (40%-69% of herbicidal efficacy or phytotoxicity)	4 (90%-100% of herbicidal efficacy or phytotoxicity)	4 (90%-100% of herbicidal efficacy or phytotoxicity)
C=CCOC(=O)N(c1ccccc1CN1CC(C)(C)OC1=O)S(=O)(=O)C(F)(F)F [1-82]	4 (90%-100% of herbicidal efficacy or phytotoxicity)	4 (90%-100% of herbicidal efficacy or phytotoxicity)	≧30	4 (90%-100% of herbicidal efficacy or phytotoxicity)	4 (90%-100% of herbicidal efficacy or phytotoxicity)	2 (40%-69% of herbicidal efficacy or phytotoxicity)	4 (90%-100% of herbicidal efficacy or phytotoxicity)	4 (90%-100% of herbicidal efficacy or phytotoxicity)

Reference: patent US20080274892A1, “Novel Haloalkylsulfonanilide Derivative, Herbicide, and Method of Use Thereof” (priority 2005, published 2008)
